Experimental findings from US6444613B1, “Defoliant” (Hoechst Schering AgrEvo GmbH, priority 1999, dated 2002) are described below.

In this assay the test system is cotton plants. The assay is described as follows: Action as defoliant: leaf abscission of cotton plants after spray application. Format: in vivo.

Regarding pyraflufen-ethyl, the “Effect in % (leaf abscission)” value (Table 2 pyraflufen-ethyl trial, dose 1 g/ha, 3 days) is recorded as 0%; the “Effect in % (leaf abscission)” value (Table 2 pyraflufen-ethyl trial, dose 1 g/ha, 5 days) is reported as 0%; the “Effect in % (leaf abscission)” value (Table 2 pyraflufen-ethyl trial, dose 2 g/ha, 3 days) came out at 0%; the “Effect in % (leaf abscission)” value (Table 2 pyraflufen-ethyl trial, dose 2 g/ha, 5 days) is 0%.
`COC(=O)CSc1cc(/N=c2\sc(=O)n3n2CCCC3)c(F)cc1Cl` [Fluthiacet-methyl, fluthiacet-methyl]: the “Effect in % (leaf abscission)” value stood at 5% (Table 1 fluthiacet-methyl trial, dose 0.,5 g/ha, 4 days); 14% (Table 1 fluthiacet-methyl trial, dose 0.,5 g/ha, 5 days); 0% (Table 1 fluthiacet-methyl trial, dose 0.25 g/ha, 4 days); 0% (Table 1 fluthiacet-methyl trial, dose 0.25 g/ha, 5 days).
Regarding `O=C(Nc1ccccc1)Nc1cnns1` [Thidiazuron, thidiazuron], the “Effect in % (leaf abscission)” value (Table 1 fluthiacet-methyl trial, dose 25 g/ha, 4 days, cotton 8-10 leaf stage) amounted to 5%; the “Effect in % (leaf abscission)” value (Table 1 fluthiacet-methyl trial, dose 25 g/ha, 5 days, cotton 8-10 leaf stage) came to 24%; the “Effect in % (leaf abscission)” value (Table 2 pyraflufen-ethyl trial, dose 25 g/ha, 3 days) was 4%; the “Effect in % (leaf abscission)” value (Table 2 pyraflufen-ethyl trial, dose 25 g/ha, 5 days) is 17%; the “Effect in % (leaf abscission)” value (Table 3.1 carfentrazone-ethyl trial, dose 80 g/ha, 10 days) came to 0%; the “Effect in % (leaf abscission)” value (Table 3.1 carfentrazone-ethyl trial, dose 80 g/ha, 20 days) amounted to 8%. The “Effect in % (leaf abscission)” value turned out to be 29% (Table 3.2 carfentrazone-ethyl trial, dose 25 g/ha, 6 days) and 52% (Table 3.2 carfentrazone-ethyl trial, dose 25 g/ha, 9 days).
For the compound `CCOC(=O)C(Cl)Cc1cc(-n2nc(C)n(C(F)F)c2=O)c(F)cc1Cl` (centres unmarked) [Carfentrazone-ethyl, carfentrazone-ethyl], the “Effect in % (leaf abscission)” value is, setting by setting: (Table 3.1 carfentrazone-ethyl trial, dose 25 g/ha, 10 days) 0%; (Table 3.1 carfentrazone-ethyl trial, dose 25 g/ha, 20 days) 5%; (Table 3.2 carfentrazone-ethyl trial, dose 1.5 g/ha, 6 days) 29%; (Table 3.2 carfentrazone-ethyl trial, dose 1.5 g/ha, 9 days) 29%.
